Common to all, as to assay: XTT assay, ADC-mediated cytotoxicity
What all share (assay type): cell-based

One assay relates to H209. To be noted: 4 days, read-out: H209 n = 3 IC50. On the procedure: (§1) To evaluate cell viability and cellular metabolic activity, XTT assays were performed according to standard protocols. WaGa, PeTa, H69, H209, H660 cell lines were plated in 3 replicates in a 96-well plate with 5.10^4 cells/well. […] Untreated cells were used as viability reference. Cells treated with 1% Triton X100 were used as cell death positive control. After 4 days, 25 μL XTT reagent at 1 mg/mL (Alfa Aesar, thermo Fisher) with N-methyl dibenzopyrazine methyl sulfate (PMS) activator (25 μM) was added per well and absorbance was measured at 450 nm after 4 h incubation. Absorbance at 620 nm was used as a reference. Three independent experiments have been performed.

The next assay relates to H69. To be noted: 4 days, read-out: H69 n = 3 IC50. The protocol: as §1
A further assay has as its system PeTa. To be noted: 4 days, read-out: PeTa n = 3 IC50. On the procedure:
as §1

In a further assay the test system is WaGa CRISPR CD56. To be noted: 4 days, CD56− cells, read-out: WaGa CRISPR CD56 n = 3 IC50. On the procedure:
as §1

A further assay relates to WaGa. To be noted: 4 days, read-out: WaGa n = 3 IC50. On the procedure:
as §1

For a further assay, the system named is MKL-1 CRISPR CD56. To be noted: 4 days, CD56− cells, read-out: MKL-1 CRISPR CD56 n = 3 IC50.

IC50 data for one molecule are collected here from patent publication US20230405140A1, “ANTI-CD56 ANTIBODY-DRUG CONJUGATES AND THEIR USE IN THERAPY” (MCSAF INSIDE ONCOLOGY, priority 2020, published 2023).

Non-standard residues stand in square brackets, D forms with d. Residues, ends and D or L forms follow the SMILES beside them. *: point of attachment. Dolaproine = CO[C@@H]([C@@H]1CCCN1)[C@@H](C)C(=O)O; Dil = CC[C@H](C)[C@H](NC)[C@@H](CC(=O)O)OC; X1 = C[C@@H](N*)[C@@H](O)c1ccccc1; NMeV = CN[C@H](C(=O)O)C(C)C

For the molecule `CC[C@H](C)[C@@H]([C@@H](CC(=O)N1CCC[C@H]1[C@H](OC)[C@@H](C)C(=O)N[C@H](C)[C@@H](O)c1ccccc1)OC)N(C)C(=O)[C@@H](NC(=O)[C@@H](NC)C(C)C)C(C)C` [MMAE, monomethyl auristatin E, reference compound] (H-[NMeV]V[Dil][Dolaproine]-X1), the IC50 with H209 turned out to be 2.24 nM; with H69 it was 0.888 nM; with PeTa it was 1.11 nM; in the assay on WaGa CRISPR CD56, 0.942 nM; in the assay on WaGa, 3.07 nM; with MKL-1 CRISPR CD56 it was 0.856 nM.

One may read the IC50 as the concentration that inhibits the measured activity by half.
